# Source: EP2562249A1, “Engineered host cells and methods for the production of cis, cis-muconic acid” (Helmholtz-Zentrum für Infektionsforschung GmbH, priority 2011, dated 2013)
# T1: catA2 (catechol 1,2-dioxygenase) (Pseudomonas putida, UniProt Q88I35)
# T1 sequence (Q88I35 1-304): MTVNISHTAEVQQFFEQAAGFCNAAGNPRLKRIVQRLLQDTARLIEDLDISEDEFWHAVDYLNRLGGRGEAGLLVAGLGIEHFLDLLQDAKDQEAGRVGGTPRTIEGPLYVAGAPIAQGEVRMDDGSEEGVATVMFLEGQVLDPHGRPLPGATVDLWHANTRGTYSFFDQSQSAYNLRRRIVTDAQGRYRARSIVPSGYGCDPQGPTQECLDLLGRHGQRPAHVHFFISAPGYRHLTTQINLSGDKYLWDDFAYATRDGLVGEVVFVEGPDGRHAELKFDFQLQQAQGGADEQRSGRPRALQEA
# B1: catA2 (catechol 1,2-dioxygenase) (Pseudomonas putida KT2440) (protein)
# chain: T1 sequence (Q88I35 1-304)
# Experiments:
# P. putida KT2440 = assay: Growth in the presence of the benzoate substrate analogues 3-FB or 3-CIB; assay type: cell-based; conditions: MM with 10 mM succinate and 1 mM benzoate, increasing concentrations; 3-FB as compared to 3-CIB
# Procedure: To determine the optimal concentrations of the substrate analogues, P. putida KT2440 was grown in MM with 10 mM succinate and 1 mM benzoate in the presence of increasing concentrations of 3-FB or 3-CIB. The accumulation of fluorocatechol derivatives is known to result in a violet coloration of the medium. When P. putida KT2440 was exposed to 3-FB or 3-CIB a violet coloration of the medium was observed. […] Therefore, two independent batch cultures of NTG-treated P. putida KT2440 cells were cultivated in the presence of 20 mM 3-FB. Batch culture 1 was grown for 14 hours and batch culture 2 for 24 hours, after which the cultures were plated. Individual colonies were screened for their ability to grow with benzoate as the sole source of carbon and energy. Three mutants that could no longer grow using benzoate were isolated from batch 1 and 84 mutants were isolated from batch 2, which represented 0.1 % and 4.4 %, respectively, of the total amount of colonies that were screened. No mutants were found when the NTG-treated P. putida KT2440 cells were not exposed to 3-FB. All mutants accumulated cis, cis-muconate in the medium when grown with succinate in the presence of benzoate. Therefore, the disability of the further conversion of 2-fluoro-cis, cis-muconate by the muconate lactonizing enzyme seems to have caused the selective advantage. […]
# [1] = target: T1, catA2 (catechol 1,2-dioxygenase); assay: catA2 activity assay: increase in cis, cis-muconate from catechol measured at A256 with purified His-tagged enzyme; assay type: biochemical, P. putida KT2440
# Excerpt: (§1) Gene catA2 was amplified from the genome of P. putida KT2440 by PCR using the forward primer 5'- […]-'3 (SEQ ID No. 7) and the reverse primer 5'-[…]-'3 (SEQ ID No. 8) containing a NdeI and XhoI site, respectively. The PCR fragment was ligated into the pET-28a(+) expression vector (Novagen, USA). The catA2 insert was controlled by sequencing after amplification with the T7 and T7 term primer set (Eurofins MWG GmbH, Germany).
# (§2) pET-28a(+) with and without the catA2 insert were electro transformed into E. coli BLN21 and plated on LB with kanamycin (50 µg/mL). Transformants containing the plasmid with and without catA2 were grown overnight in 25 mL LB with kanamycin (50 µg/mL) at 37 °C with shaking. […] The purification of CatA2 was monitored with SDS-PAGE and Westernblotting using His-Tag antibodies (Abcam, U. K.).
# (§3) The activity of catA2 was assayed by measuring the increase in cis, cis-muconate concentration from catechol in a buffer containing 20 mM Tris-HCl, 0.125 M imidazole (pH 7.8) at A256 using an UV mc2® spectrophotometer (SAFAS, Monaco). In order to determine the km value of the enzyme, the conversion rate of catechol to cis, cis-muconate was measured at 10 different concentrations of catechol ranging between from 0.0001 to 0.05 mM. […] The values for Km, IC50, and Vmax were calculated by Graphpad Prism (Graphpad Software, Inc., USA).
# [2] = substrate: Oc1ccccc1O; assay: as above; assay type: biochemical, P. putida KT2440; conditions: other: substrate catechol, 0.0001 to 0.05 mM, 20 mM Tris-HCl, 0.125 M imidazole, pH 7.8, 37.0 °C
# Excerpt: as §1, §2, §3
molecule,measurement,setting,value
"O=C(O)c1cccc(F)c1 [3-FB, 3-fluorobenzoate]",Growth of P. putida KT2440,P. putida KT2440,more inhibited
"O=C(O)/C=C\C=C/C(=O)O [cis, cis-muconate]",IC50,"[1]; at a concentration of 0.05 mM catechol, cis, cis-muconate 0 to 0.2 mM",139 µM
same,Ki,[1]; calculated from Km and IC50 using the Cheng-Prusoff equation,2.8 µM
B1,Km,[2],1 µM
